According to US10562909B2, “Fused quadracyclic compounds, compositions and uses thereof” (Tabomedex Biosciences, LLC, priority 2016, dated 2020):

These compounds were tested against MAPKAPK2 (Homo sapiens, UniProt P49137) (assay: MK2 Enzymatic Assay). Conditions: 0.5 nM MAPKAPK2, 3 μM ATP, 2 μM Ser/Thr4 peptide, 23° C., values given as concentration bins.
Format: biochemical
Summary of the method: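 MAPKAPK2 (2× stock 1 nM) and peptide substrate (2× 4 μM) were preincubated 20 min, then started with ATP (2× stock 6 μM) for 120 min. After 120 min development, coumarin/fluorescein emission ratio gave percent phosphorylation against 0% and 100% phosphopeptide controls.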

Sequence of MAPKAPK2 (P49137 whole entry, species assumed): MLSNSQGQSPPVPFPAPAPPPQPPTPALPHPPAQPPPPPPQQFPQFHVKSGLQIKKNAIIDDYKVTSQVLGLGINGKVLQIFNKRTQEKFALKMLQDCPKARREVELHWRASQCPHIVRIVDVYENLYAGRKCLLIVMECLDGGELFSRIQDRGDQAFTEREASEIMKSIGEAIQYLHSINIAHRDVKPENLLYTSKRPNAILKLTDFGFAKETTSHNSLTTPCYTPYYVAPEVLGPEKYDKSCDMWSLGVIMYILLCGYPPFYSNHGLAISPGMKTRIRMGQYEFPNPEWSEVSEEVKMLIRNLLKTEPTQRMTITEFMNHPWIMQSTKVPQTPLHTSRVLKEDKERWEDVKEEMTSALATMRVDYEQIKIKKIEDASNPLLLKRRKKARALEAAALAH

Compound | IC50
CN(C)C1CCN(c2cc3c(cn2)-n2cnnc2-c2cc(-c4ccc(C#N)cc4)cn2C3)CC1 [Compound 321, 4-(7-(4-(dimethylamino)piperidin-1-yl)-9H-pyrido[3,4-e]pyrrolo[1,2-a][1,2,4]triazolo[3,4-c][1,4]diazepin-12-yl)benzonitrile] | 100 to 200 nM
CN1CC2(CCN(c3cc4c(cn3)-n3ccnc3-c3cc(-c5ccc(C#N)cc5)cn3C4)C2)C1 [Compound 322, 4-(7-(2-methyl-2,6-diazaspiro[3.4]octan-6-yl)-9H-imidazo[2,1-c]pyrido[3,4-e]pyrrolo[1,2-a] [1,4]diazepin-12-yl)benzonitrile] | 100 to 200 nM
CNCC1CN(c2cc3c(cn2)-n2cnnc2-c2cc(-c4ccc(F)cc4)cn2C3)C1 [Compound 330, 1-(1-(12-(4-fluorophenyl)-9H-benzo[e]pyrrolo[1,2-a][1,2,4]triazolo[3,4-c][1,4]diazepin-7-yl)azetidin-3-yl)-N-methylmethanamine] | 50 to 100 nM
NC[C@H]1CCN(c2ccc3c(c2)Cn2cc(-c4ccc(F)cc4)cc2-c2nncn2-3)C1 [Compound 334, (R)-(1-(12-(4-fluorophenyl)-9H-benzo[e]pyrrolo[1,2-a][1,2,4]triazolo[3,4-c][1,4]diazepin-7-yl)pyrrolidin-3-yl)methanamine] | < 50 nM
Fc1ccc(-c2cc3n(c2)Cc2cc(N4CCC5(CNC5)C4)ccc2-n2cnnc2-3)cc1 [Compound 336, 12-(4-fluorophenyl)-7-(2,6-diazaspiro[3.4]octan-6-yl)-9H-benzo[e]pyrrolo[1,2-a][1,2,4] triazolo[3,4-c][1,4]diazepine] | < 50 nM
CNCC1CCN(c2ccc3c(c2)Cn2cc(-c4ccc(F)cc4)cc2-c2nccn2-3)C1 (stereo not shown) [Compound 342, 1-(1-(12-(4-fluorophenyl)-9H-benzo[e]imidazo[2,1-c]pyrrolo[1,2-a][1,4]diazepin-7-yl)pyrrolidin-3-yl)-N-methylmethanamine] | < 50 nM
CN1CC2(CCN(c3ccc4c(c3)Cn3cc(-c5ccc(F)cc5)cc3-c3nccn3-4)C2)C1 [Compound 344, 12-(4-fluorophenyl)-7-(2-methyl-2,6-diazaspiro[3.4]octan-6-yl)-9H-benzo[e]imidazo[2,1-c] pyrrolo[1,2-a][1,4]diazepine] | < 50 nM
CN(C)C[C@@H]1CCN(c2ccc3c(c2)Cn2cc(-c4ccc(F)cc4)cc2-c2nccn2-3)C1 [Compound 345, (S)-1-(1-(12-(4-fluorophenyl)-9H-benzo[e]imidazo[2,1-c]pyrrolo[1,2-a][1,4]diazepin-7-yl)pyrrolidin-3-yl)-N,N-dimethylmethanamine] | < 50 nM
CN(C)C[C@H]1CCN(c2ccc3c(c2)Cn2cc(-c4ccc(F)cc4)cc2-c2nccn2-3)C1 [Compound 346, (R)-1-(1-(12-(4-fluorophenyl)-9H-benzo[e]imidazo[2,1-c]pyrrolo[1,2-a][1,4]diazepin-7-yl)pyrrolidin-3-yl)-N,N-dimethylmethanamine] | < 50 nM
CNC[C@H]1CCN(c2ccc3c(c2)Cn2cc(-c4ccc(F)cc4)cc2-c2nccn2-3)C1 [Compound 348, (R)-1-(1-(12-(4-fluorophenyl)-9H-benzo[e]imidazo[2,1-c]pyrrolo[1,2-a][1,4]diazepin-7-yl)pyrrolidin-3-yl)-N-methylmethanamine] | < 50 nM
CN(C)C[C@@H]1CN(c2ccc3c(c2)Cn2cc(-c4ccc(F)cc4)cc2-c2nccn2-3)C[C@@H]1O [Compound 350, (3R,4R)-4-((dimethylamino)methyl)-1-(12-(4-fluorophenyl)-9H-benzo[e]imidazo[2,1-c]pyrrolo[1,2-a][1,4]diazepin-7-yl)pyrrolidin-3-ol] | < 50 nM
CN(C)[C@H]1CN(c2ccc3c(c2)Cn2cc(-c4ccc(F)cc4)cc2-c2nccn2-3)C[C@@H]1O [Compound 352, (3S,4S)-4-(dimethylamino)-1-(12-(4-fluorophenyl)-9H-benzo[e]imidazo[2,1-c]pyrrolo[1,2-a] [1,4]diazepin-7-yl)pyrrolidin-3-ol] | < 50 nM
CN(C)[C@@H]1CN(c2ccc3c(c2)Cn2cc(-c4ccc(F)cc4)cc2-c2nccn2-3)C[C@@H]1O [Compound 353, (3S,4R)-4-(dimethylamino)-1-(12-(4-fluorophenyl)-9H-benzo[e]imidazo[2,1-c]pyrrolo[1,2-a] [1,4]diazepin-7-yl)pyrrolidin-3-ol] | < 50 nM

Results, then the compound that gave them:

IC50 | Compound
100 to 200 nM | N#Cc1ccc(-c2cc3n(c2)Cc2cc(N4CCC5(CNC5)C4)ncc2-n2cnnc2-3)cc1 [Compound 318, 4-(7-(2,6-diazaspiro[3.4]octan-6-yl)-9H-pyrido[3,4-e]pyrrolo[1,2-a][1,2,4]triazolo[3,4-c][1,4]diazepin-12-yl)benzonitrile]
50 to 100 nM | CN(C)[C@@H]1CCN(c2cc3c(cn2)-n2cnnc2-c2cc(-c4ccc(C#N)cc4)cn2C3)C1 [Compound 319, (R)-4-(7-(3-(dimethylamino)pyrrolidin-1-yl)-9H-pyrido[3,4-e]pyrrolo[1,2-a][1,2,4]triazolo[3,4-c][1,4]diazepin-12-yl)benzonitrile]
50 to 100 nM | N#Cc1ccc(-c2cc3n(c2)Cc2cc(N4CCC5(CNC5)C4)ncc2-n2ccnc2-3)cc1 [Compound 323, 4-(7-(2,6-diazaspiro[3.4]octan-6-yl)-9H-imidazo[2,1-c]pyrido[3,4-e]pyrrolo[1,2-a][1,4]diazepin-12-yl)benzonitrile]
< 50 nM | CN1CC2(CCN(c3ccc4c(c3)Cn3cc(-c5ccc(F)cc5)cc3-c3nncn3-4)C2)C1 [Compound 332, 12-(4-fluorophenyl)-7-(2-methyl-2,6-diazaspiro[3.4]octan-6-yl)-9H-benzo[e]pyrrolo[1,2-a] [1,2,4]triazolo[3,4-c][1,4]diazepine]
< 50 nM | CNCC1CN(c2ccc3c(c2)Cn2cc(-c4ccc(F)cc4)cc2-c2nccn2-3)C1 [Compound 341, 1-(1-(12-(4-fluorophenyl)-9H-benzo[e]imidazo[2,1-c]pyrrolo[1,2-a][1,4]diazepin-7-yl)azetidin-3-yl)-N-methylmethanamine]
< 50 nM | CNC[C@@H]1CCN(c2ccc3c(c2)Cn2cc(-c4ccc(F)cc4)cc2-c2nccn2-3)C1 [Compound 347, (S)-1-(1-(12-(4-fluorophenyl)-9H-benzo[e]imidazo[2,1-c]pyrrolo[1,2-a][1,4]diazepin-7-yl)pyrrolidin-3-yl)-N-methylmethanamine]
< 50 nM | CN(C)C[C@H]1CN(c2ccc3c(c2)Cn2cc(-c4ccc(F)cc4)cc2-c2nccn2-3)C[C@H]1O [Compound 349, (3S,4S)-4-((dimethylamino)methyl)-1-(12-(4-fluorophenyl)-9H-benzo[e]imidazo[2,1-c]pyrrolo[1,2-a][1,4]diazepin-7-yl)pyrrolidin-3-ol]
< 50 nM | CN(C)[C@@H]1CN(c2ccc3c(c2)Cn2cc(-c4ccc(F)cc4)cc2-c2nccn2-3)C[C@H]1O [Compound 351, (3R,4R)-4-(dimethylamino)-1-(12-(4-fluorophenyl)-9H-benzo[e]imidazo[2,1-c]pyrrolo[1,2-a] [1,4]diazepin-7-yl)pyrrolidin-3-ol]
< 50 nM | C[C@H](CO)NC[C@@H]1CCN(c2ccc3c(c2)Cn2cc(-c4ccc(F)cc4)cc2-c2nccn2-3)C1 [Compound 354, (R)-2-((((S)-1-(12-(4-fluorophenyl)-9H-benzo[e]imidazo[2,1-c]pyrrolo[1,2-a][1,4]diazepin-7-yl)pyrrolidin-3-yl)methyl)amino)propan-1-ol]
